Reference: PMC7714830, “Quantification of the Cannabinoid Type 1 Receptor Availability in the Mouse Brain” (Frontiers in Neuroanatomy, 2020)
Read-outs that look alike come from different tables or passages of the source.

Experiments:
CB1 receptor [1] = test system: CB1 receptor; set-up: method as in Herance et al., 2011; details: knock-out n = 4, wild-type n = 4; period 40–60 min; ref Herance et al., 2011; cited from earlier work
CB1 receptor [2] = test system: CB1 receptor; set-up: method as in Horti et al., 2006; details: ref Horti et al., 2006; cited from earlier work
CB1 receptor [3] = target: CB1 receptor; set-up: method as in Burns et al., 2007; Liu et al., 2007; details: ref Burns et al., 2007, Liu et al., read-out: affinity to the CB1 receptor, IC50; cited from earlier work
CB1 receptor [4] = assay: [18F]MK-9470 PET in a CB1 receptor knock-out mouse and a wild-type mouse (re-analysis of the whole time course); type: in vivo
Experimental: (§1) Two mice, a CB1 receptor-deficient mouse, and a wild-type mouse, whose data acquisition is described in Miederer et al. ([2013]), were re-analyzed.
(§2) (A) Left: CB1 receptor knock-out mouse, right: wild-type mouse. Positron emission tomography (PET) images were summed from 40 to 60 min [injected radioactivity: 8.5 MBq (CB1^−/−) and 8.0 MBq (CB1^+/+), anaesthesia: 0.2 ml xylazine/ketamine, data acquisition: 60 min]. (B) Standardized volumes-of-interest (VOI) were drawn for the whole mouse brains (n = 2). Extracted radioactivity concentrations were normalized to the maximum radioactivity concentration in the wild-type mouse.

[5] = set-up: method as in Burns et al., 2007; Liu et al., 2007; details: ref Burns et al., 2007, Liu et al.; cited from earlier work
CB1 receptor [6] = details: human brain; ref Burns et al., 2007; cited from earlier work
CB1 receptor [7] = details: cited from earlier work
CB1 receptor [8] = target: T1, CB1 receptor (Mus musculus, UniProt P47746); assay: [18F]MK-9470 small animal PET of the mouse brain (%ID/ml, 40–60 min); type: in vivo, mouse (C57BL/6J); set-up: Six male C57BL/6J mice; from tissue; host or cells: brain of living male C57BL/6J mice (in vivo PET); details: for [^18F]MK-9470 %ID/ml: PET 40–60 min, mean ± SD
Excerpt: Six male C57BL/6J mice (21.5–28.1 g, 6–9 weeks of age; obtained from the Translational Animal Research Center—TARC of the University Medical Center Mainz) were examined. All applicable international, national, and/or institutional guidelines for the care and use of animals were followed. This study was approved by the respective state authorities (Landesuntersuchungsamt Rheinland-Pfalz).
Isoflurane inhalation anesthesia (2% isoflurane vaporized in 60% oxygen) was used to immobilize the mice, which were positioned in the small animal PET scanner in the headfirst prone position. A venous catheter, which was placed in one of the tail veins, was used to inject [^18F]MK-9470. Together with the injection, a 60-min PET measurement was started with a Focus 120 small animal PET scanner (Siemens/CTI, Knoxville, TN, USA). This small animal PET scanner has lutetium oxyorthosilicate detectors having a size of 1.5 × 1.5 × 10 mm^3 for coincidence detection of photons (time window: 6 ns). The resolution in the center of the field of view is ≤1.4 mm. As part of the quality control, a detector normalization and cross-calibration with a dose calibrator (VDC 404, Veenstra Instruments, Joure, Netherlands) were performed regularly. The PET data acquisition took place in the list mode data format.
The list-mode data, acquired for this study, were sorted into a sinogram matrix with frames of 3 × 20, 3 × 60, 3 × 120, 10 × 300 s (=19 frames). The data were reconstructed with filtered back-projection [ramp filter (cut-off = 0.5)] into a 128 × 128 matrix with 95 slices of 0.8 mm thickness (pixel size 0.87 × 0.87 mm^2). Corrections included detector dead time and random coincidences, which yielded images in the unit Bq/ml.
PET data were co-registered to the T2-weighted magnetic resonance image (MRI) template provided by the PMOD software (version 4.0, Zurich, Switzerland) based on the work of Ma et al. ([2005]) and Mirrione et al. ([2007]). […] The outcome parameter was calculated as %ID/ml = mean value of the radioactivity concentration (in the unit Bq/ml)/injected radioactivity (in the unit Bq) × 100% and included the 40–60 min acquisition interval for individual brain regions. All results were reported as mean ± standard deviation. A two-tailed paired t-test was used to compare means for VOI of different receptor densities and thus, four main comparisons were defined before the analyses: cerebellum vs. pons, caudate putamen vs. pons, cerebellum vs. hippocampus, and hippocampus vs. pons. The global significance level was αglobal = 0.05 and a Bonferroni correction yielded a local significance level of αlocal = 0.0125.
To facilitate the comparison between (quantitative, continuous) PET data and (qualitative) IHC data, the data were classified into four categories, namely no (−), low (+), mean (++) and high (+++) accumulation of the radioactivity concentration or immunohistochemical staining. The IHC data were classified based on visual inspections of the results and their descriptions in the literature sources. Statements such as “little or no,” “few” or “void” led to a classification of “–.” Statements like “low,” “some” or “weak” were classified as “+.” Descriptions like “network of CB1-immunoreactive fibers” or “intensely CB1 receptor-ir fiber meshwork” led to a rating of “++” and statements like “dense meshwork of fibers” or “very high concentration of CB1-immunoreactivity” were rated as “+++.” The PET data were classified based on the outcome parameter %ID/ml, ranging from mean values of 1.5–2.6 %ID/ml, and were subdivided into three categories. That is, signals within the interval 1.5–1.8 %ID/ml lead to a rating of “+.” Parameters within the interval 1.8–2.2 %ID/ml were rated as “++” and signals within the interval 2.2–2.6 %ID/ml were classified as “+++.” As there was no brain region devoid of a PET signal, the category “−” was omitted here.

CB1 receptor [9] = target: T1, CB1 receptor; assay: [18F]MK-9470 PET in a CB1 receptor knock-out mouse and a wild-type mouse (re-analysis of the whole time course); type: in vivo; set-up: Two mice, a CB1 receptor-deficient mouse, and a wild-type mouse; from tissue; host or cells: brain of a living wild-type mouse; the CB1-/- mouse serves as the receptor-free control; details: CB1 knock-out vs wild-type mouse
Experimental: as §1, §2

[10] = Tectum mesencephalic: colliculus inferior
[11] = Tectum mesencephalic: colliculus superior

T1 sequence (P47746 whole entry): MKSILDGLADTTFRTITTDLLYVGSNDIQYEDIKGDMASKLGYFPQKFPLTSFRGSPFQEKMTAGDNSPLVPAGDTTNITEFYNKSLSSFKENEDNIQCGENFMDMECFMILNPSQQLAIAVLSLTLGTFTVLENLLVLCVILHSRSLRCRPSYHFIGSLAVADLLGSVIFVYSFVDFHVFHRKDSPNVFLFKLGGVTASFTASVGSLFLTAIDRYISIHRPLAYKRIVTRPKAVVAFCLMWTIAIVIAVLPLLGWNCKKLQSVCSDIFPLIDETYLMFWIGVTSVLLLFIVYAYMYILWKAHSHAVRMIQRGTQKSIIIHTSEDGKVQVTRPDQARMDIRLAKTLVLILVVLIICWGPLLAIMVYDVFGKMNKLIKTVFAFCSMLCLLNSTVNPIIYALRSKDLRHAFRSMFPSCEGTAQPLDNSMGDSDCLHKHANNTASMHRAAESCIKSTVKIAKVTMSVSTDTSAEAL

Compound: [11CH3]Oc1ccc(-c2c(C#N)c(C(=O)NN3CCCCC3)nn2-c2ccc(Cl)cc2Cl)cc1 [[^11C]OMAR, 1–(2,4-dichlorophenyl)-4-cyano-5–(4-[^11C]methoxyphenyl)-N-(piperidin-1-yl)-1H-pyrazole-3-carboxamide]
- lower uptake in knock-out mice as compared to wild-type mice (CB1 receptor [1]): 50%
- %ID/ml values in mouse brain regions (CB1 receptor [2]): 2.5–6 %ID/ml

Compound: Cc1ccc(OC(C)(C)C(=O)N[C@@H](C)[C@@H](Cc2ccc(OCCF)cc2)c2cccc(C#N)c2)nc1 [[^18F]MK-9470, N-(1S,2S)-2–(3-cyanophenyl)-3–[4-(2-[^18F]fluoroethoxy)phenyl]-1-methylpropyl-2-methyl-2-[(5-methylpyridin-2-yl)oxy]propanamide]
- IC50 (CB1 receptor [3]): 0.7 nM

Compound: Cc1ccc(OC(C)(C)C(=O)N[C@@H](C)[C@@H](Cc2ccc(OCC[18F])cc2)c2cccc(C#N)c2)nc1 [[^18F]MK-9470, N-(1S,2S)-2–(3-cyanophenyl)-3–[4-(2-[^18F]fluoroethoxy)phenyl]-1-methylpropyl-2-methyl-2-[(5-methylpyridin-2-yl)oxy]propanamide]
- level of the unspecific signal in the CB1 receptor knock-out mouse, of the maximum signal measured in the wild-type mice (CB1 receptor [4]; whole brain VOI, n = 2): about 20%
- unspecific binding, of the signal present in a wild-type mouse (CB1 receptor [4]; whole brain, period of 40–60 min): approximately 20%
- lipophilicity, logD7.3 [5]: 4.7
- time to plateau after injection (CB1 receptor [6]): approximately 120 min
- time to plateau after injection (CB1 receptor [7]; rat brain, ref Casteels et al., 2012): approximately 300 min
- portion of the signal allocated to unspecific binding (CB1 receptor [7]; rats, receptor blocking with rimonabant before PET, ref Miederer et al., 2013): 58%
- Category of [^18F]MK-9470 accumulation (CB1 receptor [8]; Amygdala): ++ (Parameters within the interval 1.8–2.2 %ID/ml were rated as “++”)
- [^18F]MK-9470 %ID/ml (CB1 receptor [8]; Amygdala): 1.87 ± 0.38 %ID/ml
- Category of [^18F]MK-9470 accumulation (CB1 receptor [8]; Basal forebrain septum): ++ (Parameters within the interval 1.8–2.2 %ID/ml were rated as “++”)
- [^18F]MK-9470 %ID/ml (CB1 receptor [8]; Basal forebrain septum): 2.07 ± 0.29 %ID/ml
- Category of [^18F]MK-9470 accumulation (CB1 receptor [8]; Basal ganglia: caudate putamen): +++ (signals within the interval 2.2–2.6 %ID/ml were classified as “+++.”)
- [^18F]MK-9470 %ID/ml (CB1 receptor [8]; Basal ganglia: caudate putamen): 2.33 ± 0.40 %ID/ml
- Category of [^18F]MK-9470 accumulation (CB1 receptor [8]; Brain stem): ++ (Parameters within the interval 1.8–2.2 %ID/ml were rated as “++”)
- [^18F]MK-9470 %ID/ml (CB1 receptor [8]; Brain stem): 1.95 ± 0.36 %ID/ml
- Category of [^18F]MK-9470 accumulation (CB1 receptor [8]; Cerebellum (whole region)): ++ (Parameters within the interval 1.8–2.2 %ID/ml were rated as “++”)
- [^18F]MK-9470 %ID/ml (CB1 receptor [8]; Cerebellum (whole region)): 2.11 ± 0.40 %ID/ml
- Category of [^18F]MK-9470 accumulation (CB1 receptor [8]; Cerebral cortex): ++ (Parameters within the interval 1.8–2.2 %ID/ml were rated as “++”)
- [^18F]MK-9470 %ID/ml (CB1 receptor [8]; Cerebral cortex): 1.92 ± 0.32 %ID/ml
- Category of [^18F]MK-9470 accumulation (CB1 receptor [8]; Hippocampus): +++ (signals within the interval 2.2–2.6 %ID/ml were classified as “+++.”)
- [^18F]MK-9470 %ID/ml (CB1 receptor [8]; Hippocampus): 2.29 ± 0.41 %ID/ml
- Category of [^18F]MK-9470 accumulation (CB1 receptor [8]; Hypothalamus): ++ (Parameters within the interval 1.8–2.2 %ID/ml were rated as “++”)
- [^18F]MK-9470 %ID/ml (CB1 receptor [8]; Hypothalamus): 1.99 ± 0.34 %ID/ml
- Category of [^18F]MK-9470 accumulation (CB1 receptor [8]; Mesencephalon (whole region)): +++ (signals within the interval 2.2–2.6 %ID/ml were classified as “+++.”)
- [^18F]MK-9470 %ID/ml (CB1 receptor [8]; Mesencephalon (whole region)): 2.41 ± 0.42 %ID/ml
- Category of [^18F]MK-9470 accumulation (CB1 receptor [8]; Olfactory bulb): + (signals within the interval 1.5–1.8 %ID/ml lead to a rating of “+.”)
- [^18F]MK-9470 %ID/ml (CB1 receptor [8]; Olfactory bulb): 1.47 ± 0.08 %ID/ml
- Category of [^18F]MK-9470 accumulation (CB1 receptor [8]; Substantia grisea centralis): +++ (signals within the interval 2.2–2.6 %ID/ml were classified as “+++.”)
- [^18F]MK-9470 %ID/ml (CB1 receptor [8]; Substantia grisea centralis (central gray)): 2.56 ± 0.39 %ID/ml
- Category of [^18F]MK-9470 accumulation (CB1 receptor [8]; [10]): +++ (signals within the interval 2.2–2.6 %ID/ml were classified as “+++.”)
- [^18F]MK-9470 %ID/ml (CB1 receptor [8]; [10]): 2.48 ± 0.35 %ID/ml
- Category of [^18F]MK-9470 accumulation (CB1 receptor [8]; [11]): +++ (signals within the interval 2.2–2.6 %ID/ml were classified as “+++.”)
- [^18F]MK-9470 %ID/ml (CB1 receptor [8]; [11]): 2.44 ± 0.37 %ID/ml
- Category of [^18F]MK-9470 accumulation (CB1 receptor [8]; Thalamus): +++ (signals within the interval 2.2–2.6 %ID/ml were classified as “+++.”)
- [^18F]MK-9470 %ID/ml (CB1 receptor [8]; Thalamus): 2.34 ± 0.35 %ID/ml
- Category of [^18F]MK-9470 accumulation (CB1 receptor [8]; Whole-brain): ++ (Parameters within the interval 1.8–2.2 %ID/ml were rated as “++”)
- [^18F]MK-9470 %ID/ml (CB1 receptor [8]; Whole-brain): 2.19 ± 0.35 %ID/ml
- range of mean values of %ID/ml over brain regions (CB1 receptor [8]; all brain regions, 40–60 min): 1.5–2.6 %ID/ml
- coefficients of variation for all brain regions (CB1 receptor [8]; summed images 40–60 min): 5–20%
- kinetics in the mouse brain (CB1 receptor [8]; whole brain time course, 60 min): slow kinetics
- time of uptake into the mouse brain after injection (CB1 receptor [8]; whole brain, i.v. tail vein): ≤ 5 min
- coefficient of variation of whole-brain radioactivity concentration (CB1 receptor [8]; whole brain, interval from maximum to end of acquisition): approximately 12%
- mean value of radioactivity concentration after reaching maximum (CB1 receptor [8]; whole mouse brain, from maximum until the end of the acquisition (60 min)): approximately 2.2 %ID/ml
- binding to CB1 receptors in the mouse brain (CB1 receptor [9]): binds specifically
